In patent US20130096067A1, “DROSOPHILA TUMOR STEM CELL MODEL AND USES THEREOF” (priority 2011, published 2013):
Where a name gives a salt, the structure may show the parent alone. Numbered stars: 1 amine (or outer) side, 2 acyl side, 3 side chain; on linkers, the order of the positions; unused ones are H or OH. Bridge positions count the residues as written; N and C are the ends. Square brackets hold non-standard residues; d marks the D form. Peptide text beside a SMILES is read from it. I, II: the chains in the order shown. Actinocin(9to1) = Cc1c2oc3c(C)ccc(C(=O)[*:1])c3nc-2c(C(=O)[*:2])c(N)c1=O; NMeV = CN[C@H](C(=O)O)C(C)C; Sar = CNCC(=O)O

How the values were obtained:
[1] = system: Raf-1^gof intestinal tumors; experiment: Luciferase screen of FDA-approved (NCI) drugs in 96-well plates, flies with Raf-1^gof intestinal tumors; format: in vivo, Drosophila; as to Avg (3 + 6): test concentration or dose not given here; as to Log2 (fold): test concentration or dose not given here
[2] = system: Raf-1^gof intestinal tumors; conditions: for Fold: Table 3 summary of hits, Screen ICCB, luciferase relative to DMSO, fed three consecutive days in vials; for Log2 (fold) (luciferase activity, log2 of the fold difference relative to DMSO controls) / Fold (luciferase activity, fold difference relative to DMSO controls): screen of 480 ICCB compounds in vials, compounds fed to flies with one-day old Raf-1^gof tumors, assessed three days later, esg-Gal4 luciferase; for Fold (luciferase activity, fold difference relative to DMSO controls): averaged from multiple wells; as to Fold (luciferase activity, fold difference relative to DMSO controls): test concentration or dose not given here; as to Log2 (fold) (luciferase activity, log2 of the fold difference relative to DMSO controls): test concentration or dose not given here
JAK-STAT signaling = experiment: upd3-GFP reporter for JAK-STAT signaling in wild-type guts; format: in vivo, Drosophila; conditions: EC cells
Experimental: (§1) Flies were treated with DMSO alone as a control. […].
(§2) For example, subjecting the fly intestine to the detergent dextran sulfate sodium (DSS) or to pathogen infection, induces ECs to activate the JNK stress-related pathway and to express IL-6 related cytokines (Unpaireds/Upds) (Jiang et al., 2009; Buchon et al., 2009; Apidianakis et al., 2009). The Upds activate JAK-STAT signaling in the ISCs, driving them to overproliferate. To determine if these same pathways are activated in response to FDA anti-cancer drugs, the puc-lacZ reporter was used to monitor JNK signaling, and a Gal-4 enhancer trap to monitor expression of Upd-3, the Upd cytokine preferentially expressed in the gut in response to injury (Jiang et al., 2009).

JNK signaling = experiment: puc-LacZ reporter for JNK signaling in wild-type guts; format: in vivo, Drosophila; conditions: EC cells
Experimental: as §1, §2

[3] = average of Day 3 and Day 6 fold
[4] = log2 of the Day 3 fold difference in luciferase relative to DMSO controls
[5] = luciferase activity relative to DMSO controls, single dose of drug for three days, 96-well plates
[6] = six-day protocol: single dose for three days, then another dose for three more days

Molecule | Avg (3 + 6) [1, 3] [fold] | Log2 (fold) [1, 4] | Day 3 Fold [1, 5] [fold] | Log2 (fold) (luciferase activity, log2 of the fold difference relative to DMSO controls) [2] | Fold (luciferase activity, fold difference relative to DMSO controls) [2] | Day 6 Fold [1, 6] [fold] | further results
Cc1c2oc3c(C)ccc(C(=O)N[C@@H]4C(=O)N[C@H](C(C)C)C(=O)N5CCC[C@H]5C(=O)N(C)CC(=O)N(C)[C@@H](C(C)C)C(=O)O[C@@H]4C)c3nc-2c(C(=O)N[C@@H]2C(=O)N[C@H](C(C)C)C(=O)N3CCC[C@H]3C(=O)N(C)CC(=O)N(C)[C@@H](C(C)C)C(=O)O[C@@H]2C)c(N)c1=O [Dactinomycin] (I: T[dV]P[Sar][NMeV] / II: T[dV]P[Sar][NMeV]; ester I:1-I:C, II:1-II:C; linker I:N-II:N via Actinocin(9to1)) | 0.119 | −3.068 | 0.119 | −1.192 | 0.438 |  | Fold [2]: 0.438 fold
COc1cc([C@@H]2c3cc4c(cc3[C@@H](O[C@@H]3O[C@@H]5CO[C@@H](C)O[C@H]5[C@H](O)[C@H]3O)[C@H]3COC(=O)[C@H]23)OCO4)cc(OC)c1O [Etoposide] | 0.817 | −0.134 | 0.911 | −0.532 | 0.691 | 0.722 | 
CN(Cc1cnc2nc(N)nc(N)c2n1)c1ccc(C(=O)N[C@@H](CCC(=O)O)C(=O)O)cc1 [Methotrexate] | 0.094 | −3.231 | 0.107 | −2.648 | 0.160 | 0.081 | expression of upd3-GFP / Upd-3 reporter (JAK-STAT signaling) (JAK-STAT signaling): no effect on the expression of any of the reporters; expression of upd3-GFP / Upd-3 reporter (JAK-STAT signaling) (JAK-STAT signaling; listed as methotrexate): expressed neither reporter; expression of puc-lacZ reporter (JNK signaling) (JNK signaling): no effect on the expression of any of the reporters; expression of puc-lacZ reporter (JNK signaling) (JNK signaling; listed as methotrexate): expressed neither reporter; Fold [2]: 0.160 fold
CO[C@@]12[C@H](COC(N)=O)C3=C(C(=O)C(C)=C(N)C3=O)N1C[C@@H]1N[C@@H]12 [Mitomycin C] | 0.204 |  |  | −1.088 | 0.470 |  | Day 3 Fold ([1]; po, 72 h): 0.279 fold; Log2 (fold) ([1]; po, 72 h): −1.842; Fold [2]: 0.470 fold
CO[C@H]1C[C@@H]2CC[C@@H](C)[C@@](O)(O2)C(=O)C(=O)N2CCCC[C@H]2C(=O)O[C@H]([C@H](C)C[C@@H]2CC[C@@H](O)[C@H](OC)C2)CC(=O)[C@H](C)/C=C(\C)[C@@H](O)[C@@H](OC)C(=O)[C@H](C)C[C@H](C)/C=C/C=C/C=C/1C [Rapamycin] | 0.369 | −1.216 | 0.431 | −1.220 | 0.429 | 0.308 | Fold [2]: 0.429 fold
COc1cc([C@@H]2c3cc4c(cc3[C@@H](O[C@@H]3O[C@@H]5CO[C@@H](c6cccs6)O[C@H]5[C@H](O)[C@H]3O)[C@H]3COC(=O)[C@H]23)OCO4)cc(OC)c1O [Teniposide] | 0.634 | −0.679 | 0.625 |  |  | 0.642 | 
O=C1CCC(N2C(=O)c3ccccc3C2=O)C(=O)N1 (stereo not drawn) [Thalidomide] | 1.008 | 0.136 | 1.099 | −0.252 | 0.839 | 0.918 | 
Nc1nc2nc[nH]c2c(=S)[nH]1 [Thioguanine] | 1.392 | 0.495 | 1.409 |  |  | 1.375 | 
S=P(N1CC1)(N1CC1)N1CC1 [Thiotepa] |  |  |  |  |  |  | Avg (3 + 6) ([1]; in vivo): 0.344 fold; Day 3 Fold ([1]; in vivo): 0.353 fold; Day 6 Fold ([1]; in vivo): 0.335 fold; Log2 (fold) ([1]; in vivo): −1.501
CC[C@@]1(O)C(=O)OCc2c1cc1n(c2=O)Cc2cc3c(CN(C)C)c(O)ccc3nc2-1 [Topotecan HCl] | 0.233 | −1.600 | 0.330 |  |  | 0.137 | 
CC1=C(/C=C/C(C)=C/C=C/C(C)=C/C(=O)O)C(C)(C)CCC1 [Tretinoin] | 0.871 | −0.040 | 0.972 |  |  | 0.769 | 
C1CN1c1nc(N2CC2)nc(N2CC2)n1 [Triethylenemelamine (TEM), Triethylenemelamine] |  |  |  |  |  |  | Avg (3 + 6) ([1]; in vivo): 0.301 fold; Day 3 Fold ([1]; in vivo): 0.349 fold; Day 6 Fold ([1]; in vivo): 0.253 fold; Log2 (fold) ([1]; in vivo): −1.519
Oc1ncc(N(CCCl)CCCl)c(O)n1 [Uracil mustard] |  |  |  |  |  |  | Avg (3 + 6) ([1]; in vivo): 0.869 fold; Day 3 Fold ([1]; in vivo): 0.966 fold; Day 6 Fold ([1]; in vivo): 0.773 fold; Log2 (fold) ([1]; in vivo): −0.050
CCCCC(=O)OCC(=O)[C@]1(O)Cc2c(O)c3c(c(O)c2[C@@H](O[C@H]2C[C@H](NC(=O)C(F)(F)F)[C@H](O)[C@H](C)O2)C1)C(=O)c1c(OC)cccc1C3=O [Valrubicin] | 0.778 | −0.190 | 0.876 |  |  | 0.679 | 
CC[C@]1(O)C[C@@H]2CN(CCc3c([nH]c4ccccc34)[C@@](C(=O)OC)(c3cc4c(cc3OC)N(C)[C@H]3[C@@](O)(C(=O)OC)[C@H](OC(C)=O)[C@]5(CC)C=CCN6CC[C@]43[C@@H]65)C2)C1 [Vinblastine sulfate] | 0.158 | −2.445 | 0.184 | −2.290 | 0.204 | 0.131 | Fold [2]: 0.204 fold
CC[C@]1(O)C[C@H]2CN(CCc3c([nH]c4ccccc34)[C@@](C(=O)OC)(c3cc4c(cc3OC)N(C=O)[C@H]3[C@@](O)(C(=O)OC)[C@H](OC(C)=O)[C@]5(CC)C=CCN6CC[C@]43[C@@H]65)C2)C1 [Vincristine sulfate] | 0.314 | −2.100 | 0.233 |  |  | 0.394 | 
CCC1=C[C@@H]2CN(C1)Cc1c([nH]c3ccccc13)[C@@](C(=O)OC)(c1cc3c(cc1OC)N(C)[C@H]1[C@@](O)(C(=O)OC)[C@H](OC(C)=O)[C@]4(CC)C=CCN5CC[C@]31[C@@H]54)C2 [Vinorelbine tartrate] | 0.761 | −0.190 | 0.877 |  |  | 0.645 | 
O=C(CCCCCCC(=O)Nc1ccccc1)NO [Vorinostat] | 0.749 | −0.703 | 0.614 |  |  | 0.883 | 
O=P(O)(O)C(O)(Cn1ccnc1)P(=O)(O)O [Zolendronic acid] | 0.999 | −0.115 | 0.923 |  |  | 1.076 | 
Arsenic trioxide | 0.981 | −0.074 | 0.950 |  |  | 1.012 | 
Estramustine disodium phosphate |  |  |  |  |  |  | Avg (3 + 6) ([1]; in vivo): 0.922 fold; Day 3 Fold ([1]; in vivo): 0.971 fold; Day 6 Fold ([1]; in vivo): 0.872 fold; Log2 (fold) ([1]; in vivo): −0.042
